The nature of this experiment: Popcorn Polymer Glass Tube Reaction Test Method. The settings on record: total additive 250 ppm, 60°C, 14 to 28 days. As for the experimental part:
The Popcorn Polymer Glass Tube Reaction Method allows for the evaluation of many samples at once, and may be described as follows: • 1. Obtain butadiene popcorn polymer "seeds" (in the Examples of this invention the seeds were obtained in 1996 from a BD holding tank). Activate popcorn polymer "seeds" overnight with a 150 watt flood lamp. The "seeds" are firstplaced in a petri dish and covered. Then they are exposed to white light from the lamp for approximately 20 hours. The lamp is positioned 12 inches (30.5 cm) above the dish. • 2. To glass reaction vessels add 1 ml of deionized water. To the glass reaction vessel and water place approximately 0.6200 gms of BD popcorn "seed". Add inhibitor, if any, into the water and seal the reaction vessel with a TEFLON adapter. Completely seal off the adapter by use of a metal adapter plug. Using a gas-tight syringe, inject 15mls of butadiene monomer into the reaction vessel by way of a septum port located at the top of the TEFLON adapter. • 3. Next, place the reaction vessel containing BD popcorn "seed" and butadiene monomer into a block incubator bath which is capable of maintaining a constant temperature of 60°C. Allow the test to run for 14 to 28 days. Remove the reaction vessel from the incubator bath. • 4. Vent the BD out of the vessel by slowly opening the metal adapter plug. Slowly open the reaction vessel and decant the water/BD mixture. Rinse the wet polymer with n-heptane until most of the n-heptane is essentially clear of haze. Blow dry nitrogen into the reaction vessel to further dry the poly-mer. Remove the popcorn polymer carefully with tweezers and spatula and place in a 100 ml beaker. Wash the popcorn polymer material three times with 30 ml aliquots of n-heptane. • 5. Transfer the popcorn polymer sample into a petri dish. Place dish into a vacuum oven. Dry sample at 212°F (100°C) under a 30 mmHg vacuum for 30 minutes. Remove dish and sample from oven. Place dish and popcorn polymer sample in a desiccator. Cool for 1 hour and record the weight of the popcorn polymer. The weight of new polymer growth can be obtained by subtracting the original seed weight from the total popcom polymer weight.

We go through three compounds from patent EP1383722B1, “INHIBITION OF POPCORN POLYMER GROWTH” (BAKER HUGHES INCORPORATED, priority 2001, dated 2002).

As usually defined, the %Inhibition is the relative decrease from the control value, in per cent. A low value points to a weak effect. Turning to `CC1(C)CCCC(C)(C)N1[O]` [compound 7, 2,2,6,6-tetramethyl-1-piperidinyloxyl], where the note is “Table II”, the “%Inhibition” value was determined as 50% and the “Polymer formed mg/15ml” value is given as 550 mg/15ml. Also, where the note is “Table III”, the “%Inhibition” value is 83% and the “Polymer formed mg/15ml” value is 80 mg/15ml.
With `CC(C)(C)c1cc(O)ccc1O` [compound 8, tert-butyl hydroquinone], where the note is “Table II”, the “%Inhibition” value was 30% and the “Polymer formed mg/15ml” value is 770 mg/15ml.
In the case of `COc1cc(C(C)(C)C)c(O)c(C(C)(C)C)c1` [compound 19, 2,6-di-tert-butyl-4-methoxyphenol], where the note is “Table III”, the “%Inhibition” value is given as 77% and the “Polymer formed mg/15ml” value turned out to be 108 mg/15ml.
